Patent publication US10383866B2, “Alkyl dihydroquinoline sulfonamide compounds” (AMGEN INC., priority 2015, dated 2019)

Legend:
[1] = target: T1, hNav1.7 (Homo sapiens, UniProt Q15858); experiment: Nav 1.7 IWQ In Vitro Assay (IonWorks Quattro population patch-clamp); assay type: cell-based; conditions: HEK 293 cells stably transfected with Nav 1.7, 26th pulse to -20 mV
T1 construct: expressed in transfected cells; host or cells: HEK 293
Description: Nav 1.7 or Nav 1.5 IWQ In Vitro Assay
HEK 293 Cells stably transfected with either Nav 1.7 or Nav 1.5 were recorded in population patch-clamp mode with the IonWorks® Quattro automated electrophysiology system in accordance with the manufacturer's specifications (Molecular Devices, LLC, Sunnyvale, Calif.). Sodium channel currents were measured in response to a train of depolarizations that induced successively greater inactivation.
Cells were held at −110 mV for three seconds (Nav 1.7) or half a second (Nav 1.5) from a holding voltage of −15 mV, then put through a series of 26 pulses of 150 msec duration to −20 mV at a frequency of 5 Hz. Cells were then left unclamped for a period of 3 to 8 minutes while a single concentration of test compound was added. Cells were then reclamped and put through the same voltage protocol. Current at the end of the 26th pulse to −20 mV was subtracted from the peak current evoked by the 26th pulse to −20 mV to correct for leak current. Percent block was calculated for each concentration in duplicate, and IC50 curves were fitted to percent block as a function of concentration.

[2] = target: T2, human PXR (Homo sapiens, UniProt O75469); experiment: Human PXR @ 2 uM POC; assay type: in vitro ADME
T2 sequence (O75469 1-434): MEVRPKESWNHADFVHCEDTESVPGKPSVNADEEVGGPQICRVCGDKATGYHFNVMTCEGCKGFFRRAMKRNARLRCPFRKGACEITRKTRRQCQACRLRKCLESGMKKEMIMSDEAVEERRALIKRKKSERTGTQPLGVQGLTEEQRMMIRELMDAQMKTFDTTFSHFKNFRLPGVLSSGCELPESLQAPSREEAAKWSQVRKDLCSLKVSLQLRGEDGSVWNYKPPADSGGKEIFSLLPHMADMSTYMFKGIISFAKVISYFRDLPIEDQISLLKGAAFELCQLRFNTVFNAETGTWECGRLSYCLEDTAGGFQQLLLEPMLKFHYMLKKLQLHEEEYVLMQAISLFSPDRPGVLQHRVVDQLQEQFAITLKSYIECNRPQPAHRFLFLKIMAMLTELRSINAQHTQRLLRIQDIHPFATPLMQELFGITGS

[3] = HLM in vitro; assay type: in vitro ADME, human
[4] = target: T3, human Nav1.7 (Homo sapiens, UniProt Q15858); experiment: Nav 1.7 In Vitro PX Assay (PatchXpress whole cell voltage clamp, partially inactivated state); assay type: cell-based; conditions: HEK 293 cells stably transfected with human Nav1.7, holding potential yielding 20 to 50% inactivation, read-out: hNav1.7 PX IC50
T3 construct: expressed in transfected cells; host or cells: HEK 293
Description: Nav 1.7 In Vitro PX Assay
HEK 293 cells stably transfected with human Nav1.7 were recorded in whole cell voltage clamp mode with the PatchXpress automated electrophysiology system (Molecular Devices, LLC, Sunnyvale, Calif.). Compound effects were measured on a partially inactivated state of the sodium channel Cells were clamped to a holding potential yielding 20 to 50% inactivation. To elicit sodium current, channels were activated by pulsing to −10 mV for 20 msec. This voltage protocol was repeated at a rate of 0.1 Hz throughout the experiment. A single concentration of test compound was applied to cells for a duration of 3 minutes. Peak sodium current was measured at the end of the compound addition period to determine percent inhibition. Three to five cells were tested per concentration, and IC50 curves were fitted to percent inhibition as a function of concentration.

T1 sequence (Q15858 whole entry): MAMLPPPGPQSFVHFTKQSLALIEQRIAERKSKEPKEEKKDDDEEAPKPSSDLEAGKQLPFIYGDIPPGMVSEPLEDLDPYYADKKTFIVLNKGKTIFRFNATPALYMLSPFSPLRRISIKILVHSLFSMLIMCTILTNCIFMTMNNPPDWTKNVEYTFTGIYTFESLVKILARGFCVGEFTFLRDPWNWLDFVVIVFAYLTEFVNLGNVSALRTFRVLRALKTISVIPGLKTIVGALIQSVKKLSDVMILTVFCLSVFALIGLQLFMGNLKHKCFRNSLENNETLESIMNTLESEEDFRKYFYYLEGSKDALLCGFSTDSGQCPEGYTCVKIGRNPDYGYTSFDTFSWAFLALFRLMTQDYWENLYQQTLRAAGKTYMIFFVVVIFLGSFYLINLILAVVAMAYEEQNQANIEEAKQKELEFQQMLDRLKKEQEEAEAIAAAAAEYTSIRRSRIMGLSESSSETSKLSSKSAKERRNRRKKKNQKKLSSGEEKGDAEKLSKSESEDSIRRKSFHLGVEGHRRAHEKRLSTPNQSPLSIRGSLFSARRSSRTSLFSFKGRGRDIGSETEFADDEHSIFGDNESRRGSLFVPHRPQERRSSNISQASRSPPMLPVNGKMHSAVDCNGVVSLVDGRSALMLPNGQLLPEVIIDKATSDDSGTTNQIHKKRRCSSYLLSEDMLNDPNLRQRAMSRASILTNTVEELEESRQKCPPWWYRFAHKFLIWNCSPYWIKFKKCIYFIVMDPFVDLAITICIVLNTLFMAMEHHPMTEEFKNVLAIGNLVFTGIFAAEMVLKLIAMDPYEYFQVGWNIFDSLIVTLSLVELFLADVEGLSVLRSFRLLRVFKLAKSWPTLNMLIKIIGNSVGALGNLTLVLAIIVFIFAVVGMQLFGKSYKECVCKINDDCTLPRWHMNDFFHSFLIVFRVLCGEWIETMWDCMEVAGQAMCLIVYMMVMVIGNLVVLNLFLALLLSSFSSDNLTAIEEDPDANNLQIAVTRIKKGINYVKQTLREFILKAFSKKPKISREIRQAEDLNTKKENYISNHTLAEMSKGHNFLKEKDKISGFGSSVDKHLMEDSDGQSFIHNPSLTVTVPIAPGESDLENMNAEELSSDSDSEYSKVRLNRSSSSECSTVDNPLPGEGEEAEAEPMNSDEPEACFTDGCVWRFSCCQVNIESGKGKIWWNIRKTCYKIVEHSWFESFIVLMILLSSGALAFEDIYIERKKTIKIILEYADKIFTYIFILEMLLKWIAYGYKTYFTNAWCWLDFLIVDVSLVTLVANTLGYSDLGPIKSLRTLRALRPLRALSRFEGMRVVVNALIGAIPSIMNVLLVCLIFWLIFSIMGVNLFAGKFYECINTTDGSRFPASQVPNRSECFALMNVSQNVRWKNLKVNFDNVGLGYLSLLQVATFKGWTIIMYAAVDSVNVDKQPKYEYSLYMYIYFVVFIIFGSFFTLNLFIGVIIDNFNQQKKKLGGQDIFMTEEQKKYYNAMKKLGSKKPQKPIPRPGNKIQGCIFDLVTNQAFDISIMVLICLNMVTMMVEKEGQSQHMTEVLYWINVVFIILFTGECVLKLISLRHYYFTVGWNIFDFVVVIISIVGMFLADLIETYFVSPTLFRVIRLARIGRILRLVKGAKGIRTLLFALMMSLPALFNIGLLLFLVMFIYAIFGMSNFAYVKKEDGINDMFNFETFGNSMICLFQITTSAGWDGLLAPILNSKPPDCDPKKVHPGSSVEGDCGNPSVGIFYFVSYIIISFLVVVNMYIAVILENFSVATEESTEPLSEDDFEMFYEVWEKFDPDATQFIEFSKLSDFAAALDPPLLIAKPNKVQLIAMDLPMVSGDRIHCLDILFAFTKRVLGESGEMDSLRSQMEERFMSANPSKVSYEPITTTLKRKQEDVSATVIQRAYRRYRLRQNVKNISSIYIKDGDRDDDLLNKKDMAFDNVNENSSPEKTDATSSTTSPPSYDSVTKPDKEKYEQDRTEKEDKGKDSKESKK
T3 sequence (Q15858 whole entry): as above

| IC50 [1] [nM] | human PXR @ 2 uM POC S [2] [%] | HLM in vitro [3] | IC50 [4] [nM] | SMILES |
| --- | --- | --- | --- | --- |
| 5.3 | −2.42 | <14.0 µL/min/mg | 84.4 | COc1cc(CC(F)(F)F)c(F)cc1-n1c(=O)ccc2cc(S(=O)(=O)Nc3ccon3)ccc21 (atropisomer, axis not shown; (P)) [Example 6B, (P)-1-(5-fluoro-2-methoxy-4-(2,2,2-trifluoroethyl)phenyl)-N-(isoxazol-3-yl)-2-oxo-1,2-dihydroquinoline-6-sulfonamide] |
| 1.78 | −1.12 | <14.0 µL/min/mg | 320 | COc1cc(CC(F)(F)F)c(F)cc1-n1c(=O)ccc2cc(S(=O)(=O)Nc3ccon3)ccc21 (racemic) [Example 6A, 1-(5-fluoro-2-methoxy-4-(2,2,2-trifluoroethyl)phenyl)-N-(isoxazol-3-yl)-2-oxo-1,2-dihydroquinoline-6-sulfonamide] |

Second part, the compound before the results:

| SMILES | IC50 [1] [nM] | human PXR @ 2 uM POC S [2] [%] | HLM in vitro [3] | IC50 [4] [nM] |
| --- | --- | --- | --- | --- |
| COc1cc(CCC(F)(F)F)c(F)cc1-n1c(=O)ccc2cc(S(=O)(=O)Nc3ccon3)ccc21 (atropisomer, axis not shown; (P)) [Example 1, (P)-1-(5-fluoro-2-methoxy-4-(3,3,3-trifluoropropyl)phenyl)-N-(isoxazol-3-yl)-2-oxo-1,2-dihydroquinoline-6-sulfonamide] | 2 | 0.22 | <14.0 [2] μL/(min · mg) | 320 |
| COc1cc(CCC(F)(F)F)c(Cl)cc1-n1c(=O)ccc2cc(S(=O)(=O)Nc3ccon3)ccc21 (atropisomer, axis not shown; (P)) [Example 2, (P)-1-(5-chloro-2-methoxy-4-(3,3,3-trifluoropropyl)phenyl)-N-(isoxazol-3-yl)-2-oxo-1,2-dihydroquinoline-6-sulfonamide] | 5 | 2.38 | <14.0 µL/min/mg | 80 |
| COc1cc(CCC(F)(F)F)c(F)cc1-n1c(=O)ccc2cc(S(=O)(=O)Nc3cccnn3)ccc21 (atropisomer, axis not shown; (P)) [Example 3, (P)-1-(5-fluoro-2-methoxy-4-(3,3,3-trifluoropropyl)phenyl)-2-oxo-N-(Pyridazin-3-yl)-1,2-dihydroquinoline-6-sulfonamide] | 2 | 3.20 | <14.0 µL/min/mg | 980 |
| COc1cc(CCCC(F)(F)F)c(F)cc1-n1c(=O)ccc2cc(S(=O)(=O)Nc3ccon3)ccc21 (atropisomer, axis not shown; (P)) [Example 5, (P)-1-(5-fluoro-2-methoxy-4-(4,4,4-trifluorobutyl)phenyl)-N-(isoxazol-3-yl)-2-oxo-1,2-dihydroquinoline-6-sulfonamide] | 2 | 1.87 | <14.0 µL/min/mg | 870 |
| COc1cc(C[C@@H](C)C(F)(F)F)c(F)cc1-n1c(=O)ccc2cc(S(=O)(=O)Nc3ccon3)ccc21 (racemic) [Example 4, (P)-1-(5-fluoro-2-methoxy-4-(3,3,3-trifluoro-2-methylpropyl)phenyl)-N-(isoxazol-3-yl)-2-oxo-1,2-dihydroquinoline-6-sulfonamide] | 12 | −0.04 | <14.0 µL/min/mg | 720 |
